This note sets out measurements from patent US20080280933A1, “BENZIMIDAZOLYL COMPOUNDS” (priority 2006, published 2008).

The first assay deals with T1, mGluR2 receptor (metabotropic glutamate receptor 2) (Homo sapiens, UniProt Q14416).
T1 construct: expressed in transfected cells
T1 sequence (Q14416 19-872, species assumed): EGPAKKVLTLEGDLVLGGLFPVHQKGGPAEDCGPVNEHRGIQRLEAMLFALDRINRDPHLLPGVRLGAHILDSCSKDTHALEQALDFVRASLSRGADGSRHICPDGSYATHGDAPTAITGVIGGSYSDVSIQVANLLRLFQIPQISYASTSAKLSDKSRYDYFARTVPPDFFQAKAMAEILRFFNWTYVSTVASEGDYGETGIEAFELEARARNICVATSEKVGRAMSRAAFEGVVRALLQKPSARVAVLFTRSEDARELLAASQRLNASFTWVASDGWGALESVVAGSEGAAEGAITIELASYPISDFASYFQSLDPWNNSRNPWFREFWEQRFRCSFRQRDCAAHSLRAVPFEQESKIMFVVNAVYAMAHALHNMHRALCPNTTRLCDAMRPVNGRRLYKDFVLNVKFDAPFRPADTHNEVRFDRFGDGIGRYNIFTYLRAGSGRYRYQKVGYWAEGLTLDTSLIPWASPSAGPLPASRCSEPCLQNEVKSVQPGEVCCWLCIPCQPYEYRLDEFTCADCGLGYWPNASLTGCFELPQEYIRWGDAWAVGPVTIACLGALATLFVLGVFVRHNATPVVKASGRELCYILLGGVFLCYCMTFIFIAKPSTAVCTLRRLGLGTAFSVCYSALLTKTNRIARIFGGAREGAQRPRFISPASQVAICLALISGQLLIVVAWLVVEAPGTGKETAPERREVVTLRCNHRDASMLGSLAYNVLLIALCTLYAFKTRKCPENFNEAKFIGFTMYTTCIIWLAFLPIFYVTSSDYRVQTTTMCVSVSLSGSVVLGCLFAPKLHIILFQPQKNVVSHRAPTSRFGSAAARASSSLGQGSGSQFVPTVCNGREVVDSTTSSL
Briefly: mGluR2 Potentiator Screen, FLIPR, EC10-EC20 glutamate challenge. In kind it is cell-based. The following applies: listed as 1; read-out: EC50. As to the method:
Procedure for mGluR2 Potentiator Screen NLB Methods EC10-EC20 Challenge Cell Culture and Plating:
Cells used for this screen are HEK cells stably transfected with the mGluR2 receptor (metabotropic glutamate receptor 2) and the Gα15 G protein. Clones were identified by functional activity (FLIPR). Cells are grown in growth media containing: DMEM High Glucose with Glutamine and Na Pyruvate (GIBCO), 10% (v/v) Heat inactivate FBS (GIBCO) G418 500 ug/ml (from 50 mg/ml stock) (GIBCO) and Blasticidin 3 ug/ml (from 5 mg/ml stock made in H2O) (Invitrogen).
2 days before the assay cell are trypsinized with 0.25% trysin/EDTA (GIBCO), spun down at 1000 rpm for 5 minutes, resuspended in growth media and plated on polystyrene 384 well black wall/clear bottom poly-D-lysine coated plates at a density of approximately 18,000 cells/well in a volume of 50 μL per well. One day before the assay the growth media is removed from the plates by flicking and replaced with media containing DMEM High Glucose without Glutamine and Na Pyruvate (GIBCO) and 10% (v/v) dialyzed FBS (GIBCO). The reason for the removal of glutamine the day before the assay is to minimize the amount of glutamate that will be present during the assay, as endogenous glutarnate released from the cells can reduce the fluorescent response and interfere with the FLIPR screen.
FLIPR Methods and Data Analysis:
On the day of the assay, the FLIPR assay is performed using the following methods:
The pH is adjusted to 7.4 with 1M NaOH. Prepare a 2 mM (approx.) stock solution of Fluo-4.am (Molecular Probes) dye in DMSO −22 μl DMSO per 50 ug vial (440 μL per 1 mg vial). Make a 1 mM (approx.) flou-4, PA working solution per vial by adding 22 μl of 20% pluronic acid (PA) (Molecular Probes) in DMSO to each 50 ug vial (440 μL per 1 mg vial). Prepare a 250 mM Probenecid (Sigma) stock solution by dissolving 0.71 g into 5 ml 1N NaOH and 5 ml assay buffer (for each liter of assay wash buffer). Make 4 uM (approx.) dye incubation media by adding 2.50 ug vials per 11 ml DMEM high glucose without glutamine (220 ml per 1 mg vial). Add 110 μL probenecid stock per 11 ml (2.5 mM final [concentration]). To the dye media add 3 units/ml of glutamic-pyruvic transaminase (GPT, Sigma) and 3 mM Na Pyruvate. The assay has worked with dye concentrations from 2 uM to 8 uM dye as well. To the assay buffer from drug preparation, add 1.83 mls DMSO and 400 μL. 15.8% P104 (from New Leads biology) per liter for final concentrations of 0.18% DMSO and 0.006% P104. To the assay buffer for cell washing, add probenecid in the same manner and concentration that was used for the dye media.
Remove growth media from cell plates by flicking. Add 50 μl/well dye solution. Incubate 1 hour at 37° C. and 5% CO2. Remove dye solution and wash 3 times with assay buffer+probenecid (100 μl probenecid stock per 10 ml buffer), leaving 30 μL/well assay buffer. Wait at least 10-15 minutes. Compounds and agonist challenge additions are performed with the FLIPR. The in addition is for test compounds, which are added as 15 μL of 4× [concentration] of potentiator. The second 2nd addition is 15 μL of 4× [concentration] of agonist or challenge. This achieves 1× concentration of all compounds only after 2nd addition. The 1st and 2nd additions are performed separately using the FLIPR, which give 2 different data files. Compounds are pretreated at least 30 minutes before agonist addition.
Results are analyzed by dividing the peak fluorescent value of the FLIPR response by the […] to achieve a ratio response. The ratios are then analyzed by curve fitting programs. Since potent compounds can give an inverted U dose response curve (due to effects on endogenous glutamate by the potentiators) points are deleted at concentrations higher than the concentration that gives the maximum effect. Maximum values for dose response curves (forced fitting) are derived from standards on the plate.
Compound Preparation and Glutamate Challenge: […]
As to `COc1cc(C(F)(F)F)ccc1C1CCN(Cc2nc3ccccc3n2C)CC1` [Entry 354], the EC50 (usually the concentration at which the effect is half-maximal) is over 6.17 µM.

The assay is the same for the next values; noted with them: read-out: EC50.
With `COc1ccccc1C1CCC(=O)N(Cc2nc3ccccc3n2C)CC1` (centres unmarked) [Entry 291, 5-(2-Methoxy-phenyl)-1-(1-methyl-1H-benzoimidazol-2-ylmethyl)-azepan-2-one], the EC50 stood at 4.66 µM.
`Cn1c(CN2CCC(c3ccccc3F)CC2)nc2cc(CO)ccc21` [Entry 297, (2-((4-(2-Fluorophenyl)piperidin-1-yl)methyl)-1-methyl-1H-benzo[d]imidazol-5-yl)methanol]: the EC50 is 0.169 µM.
For `Cn1c(CN2CCC(c3ccccc3F)CC2)nc2cc(C(C)(C)O)ccc21` [Entry 298, 2-(2-((4-(2-fluorophenyl)piperidin-1-yl)methyl)-1-methyl-1H-benzo[d]imidazol-5-yl)propan-2-ol], the EC50 is over 7.34 µM.
In the case of `Cn1c(CN2CCC(c3ccccc3F)CC2)nc2c(F)cccc21` [Entry 325, 4-Fluoro-2-((4-(2-Fluorophenyl)piperidin-1-yl)methyl)-1-methyl-1H-benzo[d]imidazole], the EC50 is 0.0338 µM.
Regarding `COc1cc(C(F)(F)F)ccc1C1CCN(Cc2nc3ccccc3n2C)CC1` [Entry 354], the EC50 was under 0.0193 µM.
Consider `Cn1c(CN2CCC(c3ccccc3F)CC2)nc2cc(C(N)=O)ccc21` [Entry 363, 2-((4-(2-Fluorophenyl)piperidin-1-yl)methyl)-1-methyl-1H-benzo[d]imidazol-5-carboxamide], for which the EC50 worked out at 2.02 µM.
As to `CC(C)C(=O)N1CC2(CCN(Cc3nc4ccccc4n3C)CC2)c2cc(F)ccc21` [compound 17], the EC50 was 3.31 µM.
Same read-out and setting: the same measure for `Cc1nnsc1C(=O)N1CC2(CCN(Cc3nc4ccccc4n3C)CC2)c2cc(F)ccc21` [compound 18]: 2.45 µM; for `CC(=O)N1CC2(CCN(Cc3nc4ccccc4n3C)CC2)c2cc(F)ccc21` [compound 19]: 4.79 µM.
For the compound `CCC(=O)N1CC2(CCN(Cc3nc4ccccc4n3C)CC2)c2cc(F)ccc21` [compound 20], the EC50 turned out to be 3.39 µM.
Turning to `Cc1ccc2c(c1)C1(CCN(Cc3nc4ccccc4n3C)CC1)CN2C(=O)c1snnc1C` [compound 21], the concentration for a half-maximal effect (EC50) worked out at 1.16 µM.
In the case of `CC(=O)N1CC2(CCN(Cc3nc4ccccc4n3C)CC2)c2cc(C)ccc21` [compound 22], the half-maximal effective concentration (EC50) is 3.83 µM.
On the same count and under the same terms, to `CCC(=O)N1CC2(CCN(Cc3nc4ccccc4n3C)CC2)c2cc(C)ccc21` [compound 23] belongs 0.926 µM; to `Cc1ccc2c(c1)C1(CCN(Cc3nc4ccccc4n3C)CC1)CN2C(=O)C(C)C` [compound 24], 1.62 µM; to `Cc1nnsc1C(=O)N1CC2(CCN(Cc3nc4ccccc4n3C)CC2)c2cc(Cl)ccc21` [compound 25], 1.35 µM.
Consider `CC(=O)N1CC2(CCN(Cc3nc4ccccc4n3C)CC2)c2cc(Cl)ccc21` [compound 26], for which the EC50 stood at 2.45 µM.
In the case of `CCC(=O)N1CC2(CCN(Cc3nc4ccccc4n3C)CC2)c2cc(Cl)ccc21` [compound 27], the concentration for a half-maximal effect (EC50) turned out to be 1.06 µM.
On the same count and under the same terms, the same measure for `Cc1nnsc1C(=O)N1CC2(CCN(Cc3nc4ccccc4n3C)CC2)c2ccccc21` [compound 28]: 2.11 µM; for `Cc1ccc2c(c1)C1(CCN(Cc3nc4ccccc4n3C)CC1)CN2C(=O)c1ccoc1` [compound 29]: 2.43 µM.
The same measure, in the same setting: to `COC(=O)CCCCC(=O)N1CC2(CCN(Cc3nc4ccccc4n3C)CC2)c2cc(C)ccc21` [compound 30] belongs 4.89 µM.
Same read-out and setting: the same measure for `Cc1ccc2c(c1)C1(CCN(Cc3nc4ccccc4n3C)CC1)CN2C(=O)c1c(C)noc1C` [compound 31]: 2.04 µM; for `COC(=O)CCCC(=O)N1CC2(CCN(Cc3nc4ccccc4n3C)CC2)c2cc(C)ccc21` [compound 32]: 1.85 µM.
As for `CCOC(=O)CCC(=O)N1CC2(CCN(Cc3nc4ccccc4n3C)CC2)c2cc(C)ccc21` [compound 33], the EC50 amounted to 1.35 µM.
Regarding `COC(=O)CCC(=O)N1CC2(CCN(Cc3nc4ccccc4n3C)CC2)c2cc(C)ccc21` [compound 34], the EC50 came to 3.15 µM.
Take `Cc1ccc2c(c1)C1(CCN(Cc3nc4ccccc4n3C)CC1)CN2C(=O)c1cccnc1` [compound 35]: the EC50 was determined as 3.61 µM.
On the same count and under the same terms, to `Cc1ccc2c(c1)C1(CCN(Cc3nc4ccccc4n3C)CC1)CN2C(=O)C1CC1` [compound 36] belongs 2.33 µM.
As for `Cc1ccc2c(c1)C1(CCN(Cc3nc4ccccc4n3C)CC1)CN2C(=O)c1ccco1` [compound 37], the EC50 worked out at 1.82 µM.
Still for that read-out and setting: to `CCCC(=O)N1CC2(CCN(Cc3nc4ccccc4n3C)CC2)c2cc(C)ccc21` [compound 38] belongs 0.388 µM; to `Cc1noc(C)c1C(=O)N1CC2(CCN(Cc3nc4ccccc4n3C)CC2)c2cc(Cl)ccc21` [compound 39], 2.83 µM.
For the compound `CCOC(=O)CCC(=O)N1CC2(CCN(Cc3nc4ccccc4n3C)CC2)c2cc(Cl)ccc21` [compound 41], the EC50 is 1.63 µM.
On the same count and under the same terms, to `COC(=O)CCC(=O)N1CC2(CCN(Cc3nc4ccccc4n3C)CC2)c2cc(Cl)ccc21` [compound 42] belongs 3.23 µM.
Regarding `COCC(=O)N1CC2(CCN(Cc3nc4ccccc4n3C)CC2)c2cc(Cl)ccc21` [compound 44], the EC50 is over 5.1 µM.
Still for that read-out and setting: the same measure for `Cn1c(CN2CCC3(CC2)CN(C(=O)C2CC2)c2ccc(Cl)cc23)nc2ccccc21` [compound 45]: 1.12 µM; for `Cn1c(CN2CCC3(CC2)CN(C(=O)c2ccco2)c2ccc(Cl)cc23)nc2ccccc21` [compound 46]: over 4.86 µM.
For `COc1ccccc1C1CCN(Cc2nc3ccccc3n2C)CC1` [compound 47], the EC50 worked out at 0.0771 µM.
The same measure, in the same setting: to `Cn1c(CN2CCC3(CC2)CN(C(=O)c2ccc4nccnc4c2)c2ccccc23)nc2ccccc21` [compound 48] belongs over 6.63 µM; to `Cn1c(CN2CCC3(CC2)CN(C(=O)c2ccsc2)c2ccccc23)nc2ccccc21` [compound 49], 1.2 µM; to `Cn1c(CN2CCC3(CC2)CN(C(=O)c2ccoc2)c2ccccc23)nc2ccccc21` [compound 50], 4.93 µM.
As to `COC(=O)CCCCC(=O)N1CC2(CCN(Cc3nc4ccccc4n3C)CC2)c2ccccc21` [compound 51], the EC50 turned out to be 7.13 µM.
Still for that read-out and setting: to `Cn1c(CN2CCC3(CC2)CN(C(=O)C2COc4ccccc4O2)c2ccccc23)nc2ccccc21` (centres unmarked) [compound 52] belongs 1.39 µM; to `Cc1cc(C(=O)N2CC3(CCN(Cc4nc5ccccc5n4C)CC3)c3ccccc32)n(C)n1` [compound 53], over 6.29 µM.
For the compound `Cc1noc(C)c1C(=O)N1CC2(CCN(Cc3nc4ccccc4n3C)CC2)c2ccccc21` [compound 54], the EC50 was over 5.56 µM.
Consider `Cn1c(CN2CCC3(CC2)CN(C(=O)c2cccc(C#N)c2)c2ccccc23)nc2ccccc21` [compound 55], for which the EC50 was 3.01 µM.
In the case of `Cn1c(CN2CCC3(CC2)CN(C(=O)c2ccc(C#N)cc2)c2ccccc23)nc2ccccc21` [compound 56], the EC50 was found to be 1.75 µM.
The same measure, in the same setting: to `Cn1c(CN2CCC3(CC2)CN(C(=O)COc2ccccc2)c2ccccc23)nc2ccccc21` [compound 57] belongs 0.508 µM; to `Cn1c(CN2CCC3(CC2)CN(C(=O)COCc2ccccc2)c2ccccc23)nc2ccccc21` [compound 58], 0.589 µM.
On the same count and under the same terms, the same measure for `Cn1c(CN2CCC3(CC2)CN(C(=O)c2cccs2)c2ccccc23)nc2ccccc21` [compound 59]: 3.11 µM; for `Cn1c(CN2CCC3(CC2)CN(C(=O)C2CCC2)c2ccccc23)nc2ccccc21` [compound 60]: 2.22 µM; for `Cn1c(CN2CCC3(CC2)CN(C(=O)C2CC2)c2ccccc23)nc2ccccc21` [compound 61]: 4.01 µM.
